Assay: Binding affinity opioid receptor

Row | Structure (SMILES) | IC50 [µM]
1 | Cc1cc(O)cc(C)c1[C@H](C)[C@H](N)C(=O)N[C@H](C)C(=O)N[C@@H](Cc1ccccc1)C(=O)N[C@@H](CC(=O)O)C(=O)N[C@H](C(=O)N[C@H](C(=O)NCC(N)=O)C(C)C)C(C)C [(S)-3-((S)-2-{(R)-2-[(2S,3S)-2-Amino-3-(4-hydroxy-2,6-dimethyl-phenyl)-butyrylamino]-propionylamino}-3-phenyl-propionylamino)-N-{(S)-1-[(S)-1-(carbamoylmethyl-carbamoyl)-2-methyl-propylcarbamoyl]-2-methyl-propyl}-succinamic acid] | 17.1
2 | Cc1cc(O)cc(C)c1[C@H](C)[C@H](N)C(=O)N[C@H]1C(=O)NCC(=O)N[C@@H](Cc2ccccc2)C(=O)N[C@@H](C(=O)O)C(C)(C)SSC1(C)C [(4S,7S,13S)-13-[(2S,3S)-2-Amino-3-(4-hydroxy-2,6-dimethyl-phenyl)-butyrylamino]-7-benzyl-3,3,14,14-tetramethyl-6,9,12-trioxo-1,2-dithia-5,8,11-triaza-cyclotetradecane-4-carboxylic acid] | 0.722

— BindingDB's records for doi:10.1021/jm00038a004 (University of Arizona, 1994)
